Reference: ChEMBL document CHEMBL6078630, “Design, synthesis, and bioactivity investigation of novel cyclic lipopeptide antibiotics targeting top-priority multidrug-resistant gram-negative bacteria” (Eur J Med Chem, 2024)
In brackets after ≈: the same amount, converted by molar mass. Activity calls are given as the source filed them. No cut-off for these calls is given here. Bridge positions count the residues as written; N and C are the ends. Square brackets hold non-standard residues; d marks the D form. Peptide text beside a SMILES is read from it. * marks the point of attachment. Heptanoyl(6-Me) = CC(C)CCCCC(=O)*; Dab = NCC[C@H](N)C(=O)O; Dap = NC[C@H](N)C(=O)O

Experiments:
[1] = system: Escherichia coli; assay: Antibacterial activity against Escherichia coli ATCC BAA-2523 assessed as inhibition of bacterial growth incubated for 16 to 20 hrs by CLSI protocol based broth microdilution method; type: functional; conditions: time 16-20 hrs
[2] = system: Klebsiella pneumoniae; assay: Antibacterial activity against carbapenem-resistant Klebsiella pneumoniae ATCC BAA-1705 assessed as inhibition of bacterial growth incubated for 16 to 20 hrs by CLSI protocol based broth microdilution method; type: functional; conditions: time 16-20 hrs
[3] = system: Pseudomonas aeruginosa; assay: Antibacterial activity against carbapenem-resistant Pseudomonas aeruginosa clinical isolate 19-3 assessed as inhibition of bacterial growth incubated for 16 to 20 hrs by CLSI protocol based broth microdilution method; type: functional; conditions: time 16-20 hrs
[4] = system: Acinetobacter baumannii; assay: Antibacterial activity against carbapenem-sensitive Acinetobacter baumannii clinical isolate 19-1 assessed as inhibition of bacterial growth incubated for 16 to 20 hrs by CLSI protocol based broth microdilution method; type: functional; conditions: time 16-20 hrs
[5] = system: Acinetobacter baumannii; assay: Antibacterial activity against Acinetobacter baumannii NCTC 13304 (OXA-27) assessed as inhibition of bacterial growth incubated for 16 to 20 hrs by CLSI protocol based broth microdilution method; type: functional; conditions: time 16-20 hrs
[6] = Renal cytotoxicity against HK-2 cells incubated for 72 hrs by CCK8 assay; type: toxicity, cell-based; conditions: human
[7] = system: Escherichia coli; assay: Antibacterial activity against carbapenem-resistant Escherichia coli clinical isolate 231016w014 assessed as inhibition of bacterial growth incubated for 24 hrs by CLSI protocol based broth microdilution method; type: functional
[8] = system: Escherichia coli; assay: Antibacterial activity against carbapenem-resistant Escherichia coli clinical isolate 231112E006B assessed as inhibition of bacterial growth incubated for 24 hrs by CLSI protocol based broth microdilution method; type: functional
[9] = system: Klebsiella pneumoniae; assay: Antibacterial activity against carbapenem-resistant Klebsiella pneumoniae clinical isolate ets40 assessed as inhibition of bacterial growth incubated for 24 hrs by CLSI protocol based broth microdilution method; type: functional
[10] = system: Klebsiella pneumoniae; assay: Antibacterial activity against carbapenem-resistant Klebsiella pneumoniae clinical isolate ets74 assessed as inhibition of bacterial growth incubated for 24 hrs by CLSI protocol based broth microdilution method; type: functional
[11] = system: Klebsiella pneumoniae; assay: Antibacterial activity against carbapenem-resistant Klebsiella pneumoniae clinical isolate ets75 assessed as inhibition of bacterial growth incubated for 24 hrs by CLSI protocol based broth microdilution method; type: functional
[12] = system: Klebsiella pneumoniae; assay: Antibacterial activity against carbapenem-resistant Klebsiella pneumoniae clinical isolate ets77 assessed as inhibition of bacterial growth incubated for 24 hrs by CLSI protocol based broth microdilution method; type: functional
[13] = system: Klebsiella pneumoniae; assay: Antibacterial activity against carbapenem-resistant Klebsiella pneumoniae clinical isolate ets80 assessed as inhibition of bacterial growth incubated for 24 hrs by CLSI protocol based broth microdilution method; type: functional
[14] = system: Pseudomonas aeruginosa; assay: Antibacterial activity against carbapenem-resistant Pseudomonas aeruginosa clinical isolate ets5 assessed as inhibition of bacterial growth incubated for 24 hrs by CLSI protocol based broth microdilution method; type: functional
[15] = system: Pseudomonas aeruginosa; assay: Antibacterial activity against carbapenem-resistant Pseudomonas aeruginosa clinical isolate ets15 assessed as inhibition of bacterial growth incubated for 24 hrs by CLSI protocol based broth microdilution method; type: functional
[16] = system: Pseudomonas aeruginosa; assay: Antibacterial activity against carbapenem-resistant Pseudomonas aeruginosa clinical isolate ets85 assessed as inhibition of bacterial growth incubated for 24 hrs by CLSI protocol based broth microdilution method; type: functional
[17] = system: Pseudomonas aeruginosa; assay: Antibacterial activity against carbapenem-resistant Pseudomonas aeruginosa clinical isolate ets104 assessed as inhibition of bacterial growth incubated for 24 hrs by CLSI protocol based broth microdilution method; type: functional
[18] = system: Acinetobacter baumannii; assay: Antibacterial activity against carbapenem-resistant Acinetobacter baumannii clinical isolate ets30 assessed as inhibition of bacterial growth incubated for 24 hrs by CLSI protocol based broth microdilution method; type: functional
[19] = system: Acinetobacter baumannii; assay: Antibacterial activity against carbapenem-resistant Acinetobacter baumannii clinical isolate ets104 assessed as inhibition of bacterial growth incubated for 24 hrs by CLSI protocol based broth microdilution method; type: functional
[20] = system: Acinetobacter baumannii; assay: Antibacterial activity against carbapenem-resistant Acinetobacter baumannii clinical isolate ets123 assessed as inhibition of bacterial growth incubated for 24 hrs by CLSI protocol based broth microdilution method; type: functional
[21] = system: Acinetobacter baumannii; assay: Antibacterial activity against carbapenem-resistant Acinetobacter baumannii clinical isolate ets171 assessed as inhibition of bacterial growth incubated for 24 hrs by CLSI protocol based broth microdilution method; type: functional
[22] = system: Acinetobacter baumannii; assay: Antibacterial activity against carbapenem-resistant Acinetobacter baumannii clinical isolate ets178 assessed as inhibition of bacterial growth incubated for 24 hrs by CLSI protocol based broth microdilution method; type: functional
[23] = system: Pseudomonas aeruginosa; assay: Antibacterial activity against Pseudomonas aeruginosa ATCC 27853 assessed as decrease in bacterial concentration at 0.5 to 2 times of MIC measured after 1 hrs by time-kill kinetics assay; type: functional, organism-based
[24] = Toxicity in ICR mouse assessed as adverse effect at 15.4 mg/kg, iv administered as single dose; type: organism-based; conditions: in vivo
[25] = Nephrotoxicity against Sprague-Dawley rat assessed as increase in CRE level at 4 mg/kg, iv administered for 7 days by fully automated biochemistry analyzer XR200PLUS; type: toxicity, organism-based; conditions: in vivo, 168 h, time 7 day
[26] = C0 in male Sprague-Dawley rat at 3 mg/kg, iv measured after 24 hrs by LC-MS/MS analysis; type: ADME, organism-based; conditions: in vivo
[27] = Volume of distribution in male Sprague-Dawley rat at 3 mg/kg, iv measured after 24 hrs by LC-MS/MS analysis; type: ADME, organism-based; conditions: in vivo
[28] = system: Klebsiella pneumoniae; assay: Antibacterial activity against carbapenem-resistant Klebsiella pneumoniae ATCC BAA-1705 infected in ICR mouse model administered intravenously with compound at 1 and 6 hrs post-infection and measured after 7 days; type: functional; conditions: ATCC BAA-1705, 168 h, route iv, time 7 day
[29] = system: Klebsiella pneumoniae; assay: Antibacterial activity against carbapenem-resistant Klebsiella pneumoniae ATCC BAA-1705 infected in ICR mouse model assessed as survival rate at 2 mg/kg, iv administered at 1 and 6 hrs post-infection and measured after 7 days relative to control; type: functional; conditions: time 7 day
[30] = system: Acinetobacter baumannii; assay: Antibacterial activity against carbapenem-resistant Acinetobacter baumannii NCTC13304 infected in ICR mouse model administered intravenously with compound at 1 and 6 hrs post-infection and measured after 7 days; type: functional; conditions: NCTC13304, 168 h, route iv, time 7 day
[31] = system: Klebsiella pneumoniae; assay: Antibacterial activity against carbapenem-resistant Klebsiella pneumoniae clinical isolate KPN+19-15 infected in ICR mouse model assessed as survival rate at 2 mg/kg, iv administered at 1 and 6 hrs post-infection and measured after 7 days relative to control; type: functional; conditions: 168 h, time 7 day
[32] = system: Pseudomonas aeruginosa; assay: Potentiation of rifampicin induced antibacterial activity against Pseudomonas aeruginosa ATCC 27853 assessed as rifampicin MIC at 0.004 microg/ml incubated 24 hrs by cation adjusted Mueller-Hinton broth based method; type: functional; conditions: dose 0.004 µg/ml
[33] = system: Pseudomonas aeruginosa; assay: Potentiation of rifampicin induced antibacterial activity against Pseudomonas aeruginosa ATCC 27853 assessed as rifampicin MIC at 0.016 microg/ml incubated 24 hrs by cation adjusted Mueller-Hinton broth based method; type: functional; conditions: dose 0.016 µg/ml
[34] = system: Pseudomonas aeruginosa; assay: Potentiation of rifampicin induced antibacterial activity against Pseudomonas aeruginosa ATCC 27853 assessed as rifampicin MIC at 0.125 microg/ml incubated 24 hrs by cation adjusted Mueller-Hinton broth based method; type: functional; conditions: dose 0.125 µg/ml
[35] = system: Cell membrane; assay: Disruption of cell membrane integrity in Pseudomonas aeruginosa ATCC 27853 assessed as morphological changes at 16 microg/ml incubated for 2 hrs by scanning electron microscopic analysis; conditions: dose 16.0 µg/ml

CC(C)CCCCC(=O)N[C@@H](CCN)C(=O)N[C@H](C(=O)N[C@@H](CN)C(=O)N[C@H]1CCNC(=O)[C@H]([C@@H](C)O)NC(=O)[C@H](CCN)NC(=O)[C@H](CCN)NC(=O)[C@H]([C@@H](C)O)NC(=O)[C@@H](Cc2ccccc2)NC(=O)[C@H](CCN)NC1=O)[C@@H](C)O ({Heptanoyl(6-Me)}-[Dab]T[Dap][Dab][Dab][dF]T[Dab][Dab]T; lactam 4-C)
MIC [1]: ≤ 0.03 µg/mL | MIC [2]: ≤ 0.03 µg/mL | MIC [3]: 0.125 µg/mL (≈ 0.107 µM) | MIC [4]: ≤ 0.03 µg/mL | MIC [5]: ≤ 0.03 µg/mL | IC50 at 72 h [6]: > 500 µg/mL | MIC [7]: < 0.06 µg/mL | MIC [8]: < 0.06 µg/mL | MIC [9]: 0.25 µg/mL (≈ 0.215 µM) | MIC [10]: 0.5 µg/mL (≈ 0.43 µM) | MIC [11]: 0.5 µg/mL (≈ 0.43 µM) | MIC [12]: 0.5 µg/mL (≈ 0.43 µM) | MIC [13]: 0.25 µg/mL (≈ 0.215 µM) | MIC [14]: 1 µg/mL (≈ 0.86 µM) | MIC [15]: 0.5 µg/mL (≈ 0.43 µM) | MIC [16]: 0.5 µg/mL (≈ 0.43 µM) | MIC [17]: 1 µg/mL (≈ 0.86 µM) | MIC [18]: < 0.06 µg/mL | MIC [19]: 0.06 µg/mL (≈ 0.0516 µM) | MIC [20]: 0.5 µg/mL (≈ 0.43 µM) | MIC [21]: 0.5 µg/mL (≈ 0.43 µM) | MIC [22]: 0.5 µg/mL (≈ 0.43 µM) | Activity [23]: Active | Activity [24]: Non-toxic | Activity [25]: Non-toxic | C0 at 24 h [26]: 9810 ng/mL | Vd [27]: 0.78 L/kg | ED50 [28]: 0.32 mg/kg | Activity [29]: 100% | ED50 [30]: 0.83 mg/kg | survival at 2 mg/kg [31]: 100% | MIC [32]: 32 µg/mL | MIC [33]: 32 µg/mL | MIC [34]: ≤ 0.06 µg/mL | Activity [35]: Active
